System: JNK1 mRNA
Test: Northern assay of JNK1 mRNA expression in A549 cells
Type: cell-based, human
Conditions: for % EXPRESSION: relative to LIPOFECTIN-only control; for Normalized % Control: JNK1 mRNA dose response
Method: In order to evaluate the activity of potential JNK-modulating oligonucleotides, human lung carcinoma cell line A549 (American Type Culture Collection, Rockville, Md. No. ATCC CCL-185) cells or other cell lines as indicated in the Examples, were grown and treated with oligonucleotides or control solutions as detailed below. After harvesting, cellular extracts were prepared and examined for specific JNK mRNA levels or JNK protein levels (i.e., Northern or Western assays, respectively). In all cases, “% expression” refers to the amount of JNK-specific signal in an oligonucleotide-treated cell relative to an untreated cell (or a cell treated with a control solution that lacks oligonucleotide), and “% inhibition” is calculated as
100%−% Expression =% Inhibition.
Northern Assays: The mRNA expression of each JNK protein was determined by using a nucleic acid probe specifically hybridizable thereto. Nucleic acid probes specific for JNK1, JNK2 and JNK3 are described in Examples 3, 4 and 5, respectively. The probes were radiolabelled by means well known in the art (see, e.g., Short Protocols in Molecular Biology, 2nd Ed., Ausubel et al., Eds., John Wiley & Sons, New York, 1992, pages 3-11 to 2-3-44 and 4-17 to 4-18; Ruth, Chapter 6 In: Methods in Molecular Biology, Vol. 26: Protocols for Oligonucleotide Conjugates, Agrawal, ed., Humana Press Inc., Totowa, N.J., 1994, pages 167-185; and Chapter 10 In: Molecular Cloning: A Laboratory Manual, 2nd Ed., Sambrook et al., Eds., pages 10.1-10.70). The blots were stripped and reprobed with a ^32P-labeled glyceraldehyde 3-phosphate dehydrogenase (G3PDH) probe (Clontech Laboratories, Inc., Palo Alto, Calif.) in order to confirm equal loading of RNA and to allow the levels of JNK transcripts to be normalized with regard to the G3PDH signals.
A549 cells were grown in T-75 flasks until 80-90% confluent. At this time, the cells were washed twice with 10 mL of media (DMEM), followed by the addition of 5 mL of DMEM containing 20 μg/mL of LIPOFECTIN™ (i.e., 1:1 (w/w) DOTMA/DOPE, Life Technologies, Gaithersburg, Md.; DOTMA=N-[1-(2,3-dioleyoxy)propyl]-N,N,N-trimethylammonium chloride; DOPE=dioleoyl phosphatidylethanolamine). The oligonucleotides were added from a 10 μM stock solution to a final concentration of 400 nM, and the two solutions were mixed by swirling the flasks. As a control, cells were treated with LIPOFECTIN™ without oligonucleotide under the same conditions and for the same times as the oligonucleotide-treated samples. After 4 hours at 37° C., the medium was replaced with fresh DMEM containing 10% serum. The cells were allowed to recover for 18 hours. Total cellular RNA was then extracted in guanidinium, subject to gel electrophoresis and transferred to a filter according to techniques known in the art (see, e.g., Chapter 7 In: Molecular Cloning: A Laboratory Manual, 2nd Ed., Sambrook et al., Eds., pages 7.1-7.87, and Short Protocols in Molecular Biology, 2nd Ed., Ausubel et al., Eds., John Wiley & Sons, New York, 1992, pages 2-24 to 2-30 and 4-14 to 4-29). Filters were typically hybridized overnight to a probe specific for the particular JNK gene of interest in hybridization buffer (25 mM KPO4, pH 7.4; 5×SSC; 5× Denhardt's solution, 100 μg/ml Salmon sperm DNA and 50% formamide) (Alahari et al., Nucl. Acids Res., 1993, 21, 4079). This was followed by two washes with 1×SSC, 0.1% SDS and two washes with 0.25×SSC, 0.1% SDS. Hybridizing bands were visualized by exposure to X-OMAT AR film and quantitated using a PHOSPHORIMAGER™ essentially according to the manufacturer's instructions (Molecular Dynamics, Sunnyvale, Calif.)
B. JNK1-specific probes: In initial screenings of a set of oligonucleotides derived from the JNK1 sequence (Table 2) for biological activity, a cDNA clone of JNK1 (Derijard et al., Cell, 1994, 76, 1025) was radiolabeled and used as a JNK1-specific probe in Northern blots. […]

[1] = JNK1 mRNA, A549 cells, 400 nM oligonucleotide
[2] = JNK1 mRNA, A549 cells, 400 nM oligonucleotide, 100% - % expression

Row | Substance | % EXPRESSION [1] | % INHIBITION [2] | also measured
1 | 11978 (antisense ATTCTTTCCACTCTTCTATT; DNA, all phosphorothioate, methylation of C not given here) [compound 11978] | 85% | 15% | 
2 | 11979 (antisense CTCCTCCAAGTCCATAACTT; DNA, all phosphorothioate, methylation of C not given here) [compound 11979] | 90% | 10% | 
3 | 11980 (antisense CCCGTATAACTCCATTCTTG; DNA, all phosphorothioate, methylation of C not given here) [compound 11980] | 85% | 15% | 
4 | 11981 (antisense CTGTGCTAAAGGAGAGGGCT; DNA, all phosphorothioate, methylation of C not given here) [compound 11981] | 62% | 28% | 
5 | 11982 (antisense ATGATGGATGCTGAGAGCCA; DNA, all phosphorothioate, methylation of C not given here) [compound 11982] | 13% |  | 
6 | 11983 (antisense GTTGACATTGAAGACACATC; DNA, all phosphorothioate, methylation of C not given here) [compound 11983] | 40% |  | 
7 | 11984 (antisense CTGTATCAGAGGCCAAAGTC; DNA, all phosphorothioate, methylation of C not given here) [compound 11984] | 53% | 47% | 
8 | 11985 (antisense TGCTGCTTCTAGACTGCTGT; DNA, all phosphorothioate, methylation of C not given here) [compound 11985] | 47% |  | 
9 | 11986 (antisense AGTCATCTACAGCAGCCCAG; DNA, all phosphorothioate, methylation of C not given here) [compound 11986] | 90% | 10% | 
10 | 11987 (antisense CCATCCCTCCCACCCCCCGA; DNA, all phosphorothioate, methylation of C not given here) [compound 11987] | 47% |  | 
11 | 11988 (antisense ATCAATGACTAACCGACTCC; DNA, all phosphorothioate, methylation of C not given here) [compound 11988] | 78% | 22% | 
12 | 11989 (antisense CAAAAATAAGACCACTGAAT; DNA, all phosphorothioate, methylation of C not given here) [compound 11989] | 60% | 40% | 
13 | 12463 (antisense CACGCTTGCTTCTGCTCATG; DNA, all phosphorothioate, methylation of C not given here) [compound 12463] | 23% |  | 
14 | 12464 (antisense CGGCTTAGCTTCTTGATTGC; DNA, all phosphorothioate, methylation of C not given here) [compound 12464] | 18% |  | 
15 | 12538 (antisense CCCGCTTGGCATGAGTCTGA; chemistry not fully specified) [compound 12538] | 33% |  | 
16 | 12548 (antisense ATTTGCATCCATGAGCTCCA; DNA, all phosphorothioate, methylation of C not given here) [compound 12548] | 5% |  | 
17 | 12549 (antisense CGTTCCTGCAGTCCTGGCCA; DNA, all phosphorothioate, methylation of C not given here) [compound 12549] | 28% |  | 
18 | 12550 (antisense GGATGACCTCGGGTGCTCTG; DNA, all phosphorothioate, methylation of C not given here) [compound 12550] | 40% |  | 
19 | 12551 (antisense CCCATAATGCACCCCACAGA; DNA, all phosphorothioate, methylation of C not given here) [compound 12551] | 52% | 48% | 
20 | 12552 (antisense CGGGTGTTGGAGAGCTTCAT; DNA, all phosphorothioate, methylation of C not given here) [compound 12552] | 34% |  | 
21 | 12553 (antisense TTTGGTGGTGGAGCTTCTGC; DNA, all phosphorothioate, methylation of C not given here) [compound 12553] | 25% |  | 
22 | 12554 (antisense GGCTGCCCCCGTATAACTCC; DNA, all phosphorothioate, methylation of C not given here) [compound 12554] | 11% |  | 
23 | 12555 (antisense TGCTAAAGGAGAGGGCTGCC; DNA, all phosphorothioate, methylation of C not given here) [compound 12555] | 27% |  | 
24 | 12556 (antisense AGGCCAAAGTCGGATCTGTT; DNA, all phosphorothioate, methylation of C not given here) [compound 12556] | 41% |  | 
25 | 12557 (antisense CCACCCCCCGATGGCCCAAG; DNA, all phosphorothioate, methylation of C not given here) [compound 12557] | 29% |  | 
26 | 14320 (sense CCAAGCGGGCCTACAGAGAG; DNA, all phosphorothioate, methylation of C not given here) [compound 14320] |  |  | Normalized % Control (50 nM): 103.6%; Normalized % Control (100 nM): 76.3%; Normalized % Control (200 nM): 98.9%; Normalized % Control (400 nM): 97.1%
27 | 14321 (CTTTCCGTTGGACCCCTGGG; DNA, all phosphorothioate, methylation of C not given here) [compound 14321] |  |  | Normalized % Control (50 nM): 91.8%; Normalized % Control (100 nM): 94.1%; Normalized % Control (200 nM): 100.2%; Normalized % Control (400 nM): 79.2%
28 | CTC-TCT-GTA-GGC-CCG-CTT-GG (CTCTCTGTAGGCCCGCTTGG; chemistry not given here) [ISIS 12539] |  |  | % INHIBITION (JNK1 mRNA time course, t=0 h after 4 hour treatment): greater than 85%; % INHIBITION (JNK1 mRNA time course, t=4 h): about 95%; % INHIBITION (JNK1 mRNA time course, t=12 h): greater than or equal to 80%; % INHIBITION (JNK1 mRNA time course, t=48 h): greater than or equal to 80%; % INHIBITION (JNK1 mRNA time course, time 272 h [sic] (t=72 h in text)): ≥ 60%
